Results as given in publication PMC10520499, “Next step in the development of mesoprogestins: the preclinical profile of EC313” (Frontiers in Endocrinology, 2023).
Values joined by “and” are separate entries in the source; they are usually repeats but may differ in a detail not shown here. Equal values may be shown once.

Key:
[1] = system: human uterine fibroid xenografts; assay: Human uterine fibroid xenografts in NOD-SCID mice; format: in vivo; conditions: Part B; 0.01 mg/kg/day s.c.
Experimental: Fibroids/Leiomyoma are one of the clinical target indications for the development of EC313. But, there are no very reliable pre-clinical models known at present. From all experimental approaches, the transplantation of human fibroid tissue into immunodeficient mice s.c. resembles the clinical situation most closely. UPA served as a reference compound. There were two study parts: A and B. Part A is already published ([2]). Human uterine fibroid samples (2x2x2 mm; weighting roughly 8 mg) were transplanted s.c. into NOD-SCID mice 3 weeks after ovariectomy. Simultaneously, the animals were supplemented s.c. with E2-releasing pellets (0.05 mg E2/90 days release). The treatment period over 60 days (5 treatment days a week) started immediately after transplantation. There was a sham control, an E2 control, two EC313-group, one Ulipristal (UA) group, and a combination of UPA+EC313 (Part A). […] The animals were sacrificed after a treatment period of 60 days. Graft weights were the primary endpoint (parts A and B); histological findings including immunostainings of the grafts were used as secondary endpoints (part A).

[2] = target: T1, human mineralocorticoid receptor (hMR) (Homo sapiens, UniProt P08235); assay: MR transactivation (U2OS, MMTV-LUC); format: cell-based
T1 construct: host or cells: U2OS, transient co-transfection
T1 sequence (P08235 1-984): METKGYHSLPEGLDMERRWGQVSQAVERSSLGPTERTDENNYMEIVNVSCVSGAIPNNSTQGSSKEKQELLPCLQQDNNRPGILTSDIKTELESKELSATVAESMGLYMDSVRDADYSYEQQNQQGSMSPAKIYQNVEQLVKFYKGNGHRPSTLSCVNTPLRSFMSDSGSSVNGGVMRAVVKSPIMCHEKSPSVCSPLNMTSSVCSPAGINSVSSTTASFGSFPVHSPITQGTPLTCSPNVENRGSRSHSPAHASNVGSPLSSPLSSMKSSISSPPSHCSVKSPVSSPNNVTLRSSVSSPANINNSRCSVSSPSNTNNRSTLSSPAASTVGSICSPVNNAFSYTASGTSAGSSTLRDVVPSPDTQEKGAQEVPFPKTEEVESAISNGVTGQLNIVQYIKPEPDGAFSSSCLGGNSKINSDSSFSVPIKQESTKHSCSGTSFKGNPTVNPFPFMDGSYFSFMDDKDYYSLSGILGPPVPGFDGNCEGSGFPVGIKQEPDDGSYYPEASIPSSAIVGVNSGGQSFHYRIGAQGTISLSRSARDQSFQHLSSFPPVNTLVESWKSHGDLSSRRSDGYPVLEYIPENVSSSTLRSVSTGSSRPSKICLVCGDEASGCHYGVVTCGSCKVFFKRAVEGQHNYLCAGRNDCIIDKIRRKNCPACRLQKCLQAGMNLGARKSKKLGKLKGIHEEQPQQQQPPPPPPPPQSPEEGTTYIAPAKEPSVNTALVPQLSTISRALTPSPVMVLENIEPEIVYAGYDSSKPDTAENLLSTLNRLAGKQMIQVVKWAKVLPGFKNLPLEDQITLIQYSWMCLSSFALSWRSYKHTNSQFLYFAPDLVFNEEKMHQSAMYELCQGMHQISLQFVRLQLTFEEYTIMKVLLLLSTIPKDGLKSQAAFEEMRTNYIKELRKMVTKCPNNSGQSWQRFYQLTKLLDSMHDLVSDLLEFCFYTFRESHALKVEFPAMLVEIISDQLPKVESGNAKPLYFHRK
Description: The U2OS cell line which expresses the mineralocorticoid receptor was used to study the gene expression on the transcriptional level under the influence of EC313 and the reference compound. The cells were transfected with a vector encoding a human full-length mineralocorticoid receptor (hMR) linked to the reporter vector MMTV/LUC. Cells were transiently and stably transfected in order to reach high protein expression. Next, co-transfected U2OS cells carrying mineralocorticoid receptors and reporter vector MMTV/LUC were stimulated by the tested compounds (Aldosterone or EC313) or the mixture: aldosterone and an appropriate range of concentrations of EC313. The agonist and antagonist properties of EC313 toward tested receptor MR were analyzed using luminescence detection.
In order to develop the transfection assay, plasmid-included vectors coding sequences for the receptor as well as the reporter gene were generated and isolated, respectively. Vector pcDNA3.1 coding sequence for full length of human MR (MR cDNA ORF clone in pcDNA3.1+/C-(K)-DYK) was used as an expression vector for MR and was linked to the reporter system (pGL4.36-MMTV/LUC) building with vector pGL4.36 coding the mineralocorticoid responsive element (MMTV) and firefly luciferase [luc2P/Hygro].
Transfection was performed on a 96-well plate (15.5x10^3 cells per well) in culture medium (RPMI phenol red, 10% FBS, L-Glu) w/o antibiotics according to the manufacturer’s specification. Prior to transfection, plated cells were approximately 70%–80% confluent. 24h later, cells were treated with test compounds overnight.
The properties of EC313 to induce/inhibit tested receptor was studied in agonistic and antagonistic approaches. Co-transfected U2OS cells were stimulated with either aldosterone (0.009 nM - 1200 nM) or EC313 (0.009 nM - 1200 nM) in order to determine and compare the agonist potential of test compounds. The antagonistic activity was checked in competitive interaction between EC313 (0.009 nM - 1200 nM) and 0.4 nM of Aldosterone.

[3] = Aqueous solubility; format: physicochemical
[4] = system: orchiectomized male Wistar rats; assay: Hershberger assay; format: in vivo, rat; conditions: 3, 10 and 30 mg/animal/day s.c., 7 days; ± Testosterone propionate 1 mg/animal/day
Experimental: To test EC313 for potential androgenic or anti-androgenic potential, the Hershberger assay was used. Orchiectomized male Wistar rats were treated for 7 consecutive days with daily subcutaneous injections of EC313 (3, 10, and 30 mg/animal/day).
The potential anti-androgenic activity was assessed by co-administration of Testosterone propionate (TP; 1 mg/animal/day s.c.), which also served as the positive control, and EC313. The vehicle served as the negative control. One day after the last treatment, animals were sacrificed and the prostate gland and the seminal vesicles were removed and weighed. The relative weight of these organs, expressed as mg/100 g body weight, served as the endpoint.

## C[C@]12C[C@H](c3ccc(-c4ccoc4)cc3)C3=C4CCC(=O)C=C4CC[C@H]3[C@@H]1CC[C@]21OCCC1=C(F)F [EC313]
[1]
  anti-fibroid activity at very low dose: demonstrated
[2]
  transactivation of hMR (agonism): does not transactivate hMR
[2]; MR antagonism
  fold lower potency than Spironolactone: approximately 80 fold
[2]; MR, 0.4 nM Aldosterone, read-out: IC50, antagonism of Aldosterone-induced transactivation
  IC50: 2 µM and ~2 µM
[3]
  aqueous solubility: very low aqueous solubility
[4]
  androgenic / anti-androgenic effects (prostate plus seminal vesicle weights): neither significant androgenic nor anti-androgenic effects
